Reference: PubChem BioAssay AID1745844 (Carcinogenic Potency Database (CPDB), 2022)
Calls of active or inactive are those of the source. The rule behind the calls is not given here.

Test system: rodent lifetime carcinogenesis bioassay, tumor incidence TD50
Assay: chronic cancer bioassays in animals – CPDB, compiled studies (AID 1745844)

## COc1cc(-c2ccc(N=C=O)c(OC)c2)ccc1N=C=O
mouse, strain B6C3F1, females, in feed, site: any site (literature study), lesion: several types, types named in the paper, dosed 78 weeks, study length 103 weeks
  TD50: 32800 mg/kg/day (inactive)
mouse, strain B6C3F1, males, in feed, site: any site (literature study), lesion: several types, types named in the paper, dosed 78 weeks, study length 103 weeks
  TD50: 24000 mg/kg/day (inactive)
mouse, strain B6C3F1, males, in feed, site: liver, lesion: hepatocellular adenoma + hepatocellular carcinoma + neoplastic nodule, dosed 78 weeks, study length 103 weeks
  TD50: 12100 mg/kg/day
mouse, strain B6C3F1, males, in feed, site: lung, lesion: alveolar/bronchiolar adenoma + alveolar/bronchiolar carcinoma, dosed 78 weeks, study length 103 weeks
  TD50: 87900 mg/kg/day
rat, strain Fischer 344, females, oral dosing, site: all sites + uterus, lesion: leukemia + lymphoma + endometrial stromal polyp, dosed 78 weeks, study length 104 weeks
  TD50: 1450 mg/kg/day
rat, strain Fischer 344, females, oral dosing, site: all sites, lesion: leukemia + lymphoma, dosed 78 weeks, study length 104 weeks
  TD50: 2280 mg/kg/day
rat, strain Fischer 344, females, oral dosing, site: any site (literature study), lesion: several types, types named in the paper, dosed 78 weeks, study length 104 weeks
  TD50: 773 mg/kg/day
rat, strain Fischer 344, females, oral dosing, site: ear + Zymbal's gland, lesion: sebaceous adenocarcinoma + squamous-cell carcinoma + trichoepithelioma, dosed 78 weeks, study length 104 weeks
  TD50: 2590 mg/kg/day
rat, strain Fischer 344, females, oral dosing, site: liver, lesion: hepatocellular adenoma + hepatocellular carcinoma + neoplastic nodule, dosed 78 weeks, study length 104 weeks
  TD50: 17100 mg/kg/day
rat, strain Fischer 344, females, oral dosing, site: uterus, lesion: endometrial stromal polyp, dosed 78 weeks, study length 104 weeks
  TD50: 2740 mg/kg/day
rat, strain Fischer 344, males, oral dosing, site: all sites + skin of foot and toe + skin of back + skin of flank + skin, lesion: leukemia + lymphoma + keratoacanthoma + basal-cell tumor + papilloma, NOS + sebaceous adenoma + sebaceous adenoma and adenocarcinoma, dosed 78 weeks, study length 104 weeks
  TD50: 742 mg/kg/day
rat, strain Fischer 344, males, oral dosing, site: all sites, lesion: leukemia + lymphoma, dosed 78 weeks, study length 104 weeks
  TD50: 1270 mg/kg/day
rat, strain Fischer 344, males, oral dosing, site: any site (literature study), lesion: several types, types named in the paper, dosed 78 weeks, study length 104 weeks
  TD50: 809 mg/kg/day
rat, strain Fischer 344, males, oral dosing, site: ear + Zymbal's gland, lesion: squamous-cell carcinoma, dosed 78 weeks, study length 104 weeks
  TD50: 7010 mg/kg/day
rat, strain Fischer 344, males, oral dosing, site: liver, lesion: hepatocellular adenoma + hepatocellular carcinoma + neoplastic nodule, dosed 78 weeks, study length 104 weeks
  TD50: 6600 mg/kg/day
rat, strain Fischer 344, males, oral dosing, site: skin of foot and toe + skin of back + skin of flank + skin, lesion: keratoacanthoma + basal-cell tumor + papilloma, NOS + sebaceous adenoma + trichoepithelioma, dosed 78 weeks, study length 104 weeks
  TD50: 1770 mg/kg/day
rat, strain Fischer 344, males, oral dosing, site: skin of foot and toe + skin of back + skin of flank + skin, lesion: keratoacanthoma + basal-cell tumor + papilloma, NOS + sebaceous adenoma and adenocarcinoma + squamous-cell carcinoma + trichoepith, dosed 78 weeks, study length 104 weeks
  TD50: 1330 mg/kg/day

## [O]=[Bi]
rat, strain BD, both sexes, in feed, site: hypophysis, lesion: adenoma, dosed 104 weeks, study length 120 weeks
  carcinogen call: negative (inactive)
rat, strain BD, both sexes, in feed, site: mammary gland, lesion: carcinoma, dosed 104 weeks, study length 120 weeks
  carcinogen call: negative (inactive)
rat, strain BD, both sexes, in feed, site: mammary gland, lesion: fibroadenoma, dosed 104 weeks, study length 120 weeks
  TD50: 150000 mg/kg/day (inactive)

## CN(N=O)c1ccc([N+](=O)[O-])cc1
rat, strain Fischer 344, males, in drinking water, site: any site (literature study), lesion: several types, types named in the paper, dosed 50 weeks, study length 114 weeks
  carcinogen call: negative (inactive)
rat, strain Fischer 344, males, in drinking water, site: liver, lesion: hyperplastic nodule, dosed 50 weeks, study length 114 weeks
  TD50: 5.87 mg/kg/day (inactive)

## Cc1cc(C)nc(NS(=O)(=O)c2ccc(N)cc2)n1
mouse, strain B6C3F1, females, in feed, site: liver, lesion: hepatocellular adenoma, dosed 78 weeks, study length 78 weeks
  TD50: 2820 mg/kg/day
mouse, strain B6C3F1, females, in feed, site: liver, lesion: hepatocellular adenoma, dosed 104 weeks, study length 104 weeks
  TD50: 12300 mg/kg/day
mouse, strain B6C3F1, females, in feed, site: liver, lesion: hepatocellular carcinoma, dosed 104 weeks, study length 104 weeks
  TD50: 16500 mg/kg/day
mouse, strain B6C3F1, females, in feed, site: liver, lesion: several types, types named in the paper, dosed 104 weeks, study length 104 weeks
  TD50: 8740 mg/kg/day
mouse, strain B6C3F1, females, in feed, site: lung, lesion: alveolar/bronchiolar carcinoma, dosed 52 weeks, study length 52 weeks
  TD50: 3100 mg/kg/day
mouse, strain B6C3F1, females, in feed, site: lung, lesion: alveolar/bronchiolar carcinoma, dosed 104 weeks, study length 104 weeks
  TD50: 12700 mg/kg/day
mouse, strain B6C3F1, females, in feed, site: thyroid gland, lesion: follicular-cell adenoma, dosed 78 weeks, study length 78 weeks
  TD50: 618 mg/kg/day
mouse, strain B6C3F1, females, in feed, site: thyroid gland, lesion: follicular-cell adenoma, dosed 104 weeks, study length 104 weeks
  TD50: 2160 mg/kg/day
mouse, strain B6C3F1, females, in feed, site: thyroid gland, lesion: follicular-cell carcinoma, dosed 104 weeks, study length 104 weeks
  TD50: 54800 mg/kg/day
mouse, strain B6C3F1, females, in feed, site: thyroid gland, lesion: several types, types named in the paper, dosed 104 weeks, study length 104 weeks
  TD50: 2060 mg/kg/day
mouse, strain B6C3F1, males, in feed, site: liver, lesion: hepatocellular adenoma, dosed 104 weeks, study length 104 weeks
  TD50: 14900 mg/kg/day
mouse, strain B6C3F1, males, in feed, site: liver, lesion: several types, types named in the paper, dosed 104 weeks, study length 104 weeks
  TD50: 11700 mg/kg/day
mouse, strain B6C3F1, males, in feed, site: thyroid gland, lesion: follicular-cell adenoma, dosed 78 weeks, study length 78 weeks
  TD50: 3370 mg/kg/day
mouse, strain B6C3F1, males, in feed, site: thyroid gland, lesion: follicular-cell adenoma, dosed 104 weeks, study length 104 weeks
  TD50: 1220 mg/kg/day
mouse, strain B6C3F1, males, in feed, site: thyroid gland, lesion: follicular-cell carcinoma, dosed 104 weeks, study length 104 weeks
  TD50: 72100 mg/kg/day
mouse, strain B6C3F1, males, in feed, site: thyroid gland, lesion: several types, types named in the paper, dosed 104 weeks, study length 104 weeks
  TD50: 1190 mg/kg/day

## Cn1cc[nH]c1=S
rat, strain Harlan, females, in feed, site: thyroid gland, lesion: follicular adenocarcinoma, dosed 104 weeks, study length 104 weeks
  TD50: 9.47 mg/kg/day
rat, strain Harlan, females, in feed, site: thyroid gland, lesion: follicular-cell adenoma, dosed 104 weeks, study length 104 weeks
  TD50: 1.57 mg/kg/day
rat, strain Harlan, males, in feed, site: thyroid gland, lesion: follicular adenocarcinoma, dosed 104 weeks, study length 104 weeks
  TD50: 37.6 mg/kg/day
rat, strain Harlan, males, in feed, site: thyroid gland, lesion: follicular-cell adenoma, dosed 104 weeks, study length 104 weeks
  TD50: 0.9 mg/kg/day

## Brc1c(Br)c(Br)c(Oc2c(Br)c(Br)c(Br)c(Br)c2Br)c(Br)c1Br
mouse, strain B6C3F1, females, in feed, site: any site (literature study), lesion: several types, types named in the paper, dosed 103 weeks, study length 103 weeks
  carcinogen call: negative (inactive)
mouse, strain B6C3F1, females, in feed, site: liver, lesion: hepatocellular adenoma + hepatocellular carcinoma + neoplastic nodule, dosed 103 weeks, study length 103 weeks
  TD50: 33400 mg/kg/day
mouse, strain B6C3F1, males, in feed, site: any site (literature study), lesion: several types, types named in the paper, dosed 103 weeks, study length 103 weeks
  TD50: 9060 mg/kg/day
mouse, strain B6C3F1, males, in feed, site: liver, lesion: hepatocellular adenoma + hepatocellular carcinoma + neoplastic nodule, dosed 103 weeks, study length 103 weeks
  TD50: 11200 mg/kg/day
mouse, strain B6C3F1, males, in feed, site: liver, lesion: hepatocellular adenoma + hepatocellular carcinoma, dosed 103 weeks, study length 103 weeks
  TD50: 11200 mg/kg/day
mouse, strain B6C3F1, males, in feed, site: thyroid gland, lesion: follicular-cell adenoma + follicular-cell carcinoma, dosed 103 weeks, study length 103 weeks
  TD50: 20500 mg/kg/day
rat, strain Fischer 344, females, in feed, site: any site (literature study), lesion: several types, types named in the paper, dosed 103 weeks, study length 104 weeks
  TD50: 4380 mg/kg/day
rat, strain Fischer 344, females, in feed, site: liver, lesion: hepatocellular adenoma + hepatocellular carcinoma + neoplastic nodule, dosed 103 weeks, study length 104 weeks
  TD50: 6580 mg/kg/day
rat, strain Fischer 344, females, in feed, site: liver, lesion: hepatocellular carcinoma + neoplastic nodule, dosed 103 weeks, study length 104 weeks
  TD50: 6580 mg/kg/day
rat, strain Fischer 344, females, in feed, site: liver, lesion: neoplastic nodule, dosed 103 weeks, study length 104 weeks
  TD50: 7740 mg/kg/day
rat, strain Fischer 344, males, in feed, site: any site (literature study), lesion: several types, types named in the paper, dosed 103 weeks, study length 104 weeks
  TD50: 2230 mg/kg/day
rat, strain Fischer 344, males, in feed, site: liver, lesion: hepatocellular adenoma + hepatocellular carcinoma + neoplastic nodule, dosed 103 weeks, study length 104 weeks
  TD50: 2220 mg/kg/day
rat, strain Fischer 344, males, in feed, site: liver, lesion: hepatocellular carcinoma + neoplastic nodule, dosed 103 weeks, study length 104 weeks
  TD50: 2220 mg/kg/day
rat, strain Fischer 344, males, in feed, site: liver, lesion: neoplastic nodule, dosed 103 weeks, study length 104 weeks
  TD50: 2130 mg/kg/day
rat, strain Fischer 344, males, in feed, site: pancreas, lesion: acinar-cell adenoma, dosed 103 weeks, study length 104 weeks
  TD50: 13900 mg/kg/day
rat, strain Sprague-Dawley Spartan, females, in feed, site: any site (literature study), lesion: several types, types named in the paper, dosed 105 weeks, study length 105 weeks
  TD50: 0.987 mg/kg/day (inactive)
rat, strain Sprague-Dawley Spartan, females, in feed, site: liver, lesion: hepatocellular tumor, dosed 105 weeks, study length 105 weeks
  carcinogen call: negative (inactive)
rat, strain Sprague-Dawley Spartan, males, in feed, site: any site (literature study), lesion: several types, types named in the paper, dosed 100 weeks, study length 100 weeks
  carcinogen call: negative (inactive)
rat, strain Sprague-Dawley Spartan, males, in feed, site: liver, lesion: hepatocellular tumor, dosed 100 weeks, study length 100 weeks
  carcinogen call: negative (inactive)

## O=C(O)C1C2C=CC(C2)C1(C(=O)O)[N+](=O)[O-] (stereo not drawn)
mouse, strain B6C3F1, females, in drinking water, site: any site (literature study), lesion: several types, types named in the paper, dosed 104 weeks, study length 104 weeks
  TD50: 169 mg/kg/day
mouse, strain B6C3F1, females, in drinking water, site: liver, lesion: hemangioma, dosed 104 weeks, study length 104 weeks
  TD50: 1240 mg/kg/day
mouse, strain B6C3F1, females, in drinking water, site: liver, lesion: hyperplastic nodule, dosed 104 weeks, study length 104 weeks
  TD50: 3190 mg/kg/day
mouse, strain B6C3F1, females, in drinking water, site: lung, lesion: papillary tumor, dosed 104 weeks, study length 104 weeks
  TD50: 5650 mg/kg/day
mouse, strain B6C3F1, males, in drinking water, site: any site (literature study), lesion: several types, types named in the paper, dosed 104 weeks, study length 104 weeks
  TD50: 153 mg/kg/day
mouse, strain B6C3F1, males, in drinking water, site: liver, lesion: hepatoma, dosed 104 weeks, study length 104 weeks
  TD50: 2640 mg/kg/day
mouse, strain B6C3F1, males, in drinking water, site: lung, lesion: papillary tumor, dosed 104 weeks, study length 104 weeks
  TD50: 348 mg/kg/day

## CC1(C)C(=O)Nc2ccc(C3=NNC(=O)CC3)cc21
rat, strain Fischer 344, females, in feed, site: adrenal medulla, lesion: pheochromocytoma, benign, dosed 104 weeks, study length 104 weeks
  TD50: 5.05 mg/kg/day
rat, strain Fischer 344, females, in feed, site: adrenal medulla, lesion: several types, types named in the paper, dosed 104 weeks, study length 104 weeks
  TD50: 4.82 mg/kg/day
rat, strain Fischer 344, males, in feed, site: adrenal medulla, lesion: pheochromocytoma, benign, dosed 95 weeks, study length 95 weeks
  TD50: 1.38 mg/kg/day
rat, strain Fischer 344, males, in feed, site: adrenal medulla, lesion: pheochromocytoma, malignant, dosed 95 weeks, study length 95 weeks
  TD50: 23.8 mg/kg/day
rat, strain Fischer 344, males, in feed, site: adrenal medulla, lesion: several types, types named in the paper, dosed 95 weeks, study length 95 weeks
  TD50: 1.27 mg/kg/day
